Measured values taken from patent publication US20200317642A1, “AMINE-SUBSTITUTED HETEROCYCLIC COMPOUNDS AS EHMT2 INHIBITORS AND DERIVATIVES THEREOF” (Epizyme, Inc., priority 2017, published 2020).
Where two headings read alike, the source gives them in different places.

How the values were obtained:
human EHMT2 913-1193 = target: T1, human EHMT2 913-1193 (Homo sapiens, UniProt Q96KQ7); test: EHMT2 enzyme assay on histone peptide substrate; format: biochemical; details: histone H3 1-15 peptide, balanced conditions
T1 construct: recombinant purified human EHMT2 913-1193, Viva; purchased Viva
T1 sequence (Q96KQ7 913-1193): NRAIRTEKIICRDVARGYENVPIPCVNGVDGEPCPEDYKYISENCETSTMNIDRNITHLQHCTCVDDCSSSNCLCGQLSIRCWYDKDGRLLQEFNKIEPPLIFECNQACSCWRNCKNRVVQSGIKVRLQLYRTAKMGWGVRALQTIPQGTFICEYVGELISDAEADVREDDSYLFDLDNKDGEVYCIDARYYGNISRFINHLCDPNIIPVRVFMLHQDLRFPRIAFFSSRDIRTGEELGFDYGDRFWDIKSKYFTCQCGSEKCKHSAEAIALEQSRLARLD
From the text: Recombinant purified human EHMT2 913-1193 ([…]) synthesized by Viva was used for all experiments. Biotinylated histone peptides were synthesized by Biopeptide and HPLC-purified to >95% purity. Streptavidin Flashplates and seals were purchased from PerkinElmer and 384 Well V-bottom Polypropylene Plates were from Greiner. ^3H-labeled S-adenosylmethionine (^3H-SAM) was obtained from American Radiolabeled Chemicals with a specific activity of 80 Ci/mmol. Unlabeled SAM and S-adenosylhomocysteine (SAH) were obtained from American Radiolabeled Chemicals and Sigma-Aldrich respectively. Flashplates were washed in a Biotek ELx-405 with 0.1% Tween. 384-well Flashplates and 96-well filter binding plates were read on a TopCount microplate reader (PerkinElmer). Compound serial dilutions were performed on a Freedom EVO (Tecan) and spotted into assay plates using a Thermo Scientific Matrix PlateMate (Thermo Scientific). Reagent cocktails were added by Multidrop Combi (Thermo Scientific).
10-point curves of test compounds were made on a Freedom EVO (Tecan) using serial 3-fold dilutions in DMSO, beginning at 2.5 mM (final top concentration of compound was […] and the DMSO was 2%). A 1 μL aliquot of the inhibitor dilution series was spotted in a polypropylene 384-well V-bottom plate (Greiner) using a Thermo Scientific Matrix PlateMate (Thermo Scientific). The 100% inhibition control consisted of 1 mM final concentration of the product inhibitor S-adenosylhomocysteine (SAH, Sigma-Aldrich). Compounds were incubated for 30 minutes with 40 μL per well of 0.031 nM EHMT2 (recombinant purified human EHMT2 913-1193, Viva) in 1× assay buffer (20 mM Bicine [pH 7.5], 0.002% Tween 20, 0.005% Bovine Skin Gelatin and 1 mM TCEP). 10 μL per well of substrate mix comprising assay buffer, ^3H-SAM (^3H-labeled S-adenosylmethionine, American Radiolabeled Chemicals, specific activity of 80 Ci/mmol), unlabeled SAM (American Radiolabeled Chemicals), and peptide representing histone H3 residues 1-15 containing C-terminal biotin (appended to a C-terminal amide-capped lysine, synthesized by Biopeptide and HPLC-purified to greater than 95% purity) were added to initiate the reaction (both substrates were present in the final reaction mixture at their respective Km values, an assay format referred to as “balanced conditions”). Reactions were incubated for 60 minutes at room temperature and quenched with 10 μL per well of 400 μM unlabeled SAM, then transferred to a 384-well streptavidin Flashplate (PerkinElmer) and washed in a Biotek ELx-405 well washer with 0.1% Tween after 60 minutes. 384-well Flashplates were read on a TopCount microplate reader (PerkinElmer).

[1] = system: H3K9me2 in MDA-MB-231 cells; test: MDA-MB-231 H3K9me2 in-cell western assay (EHMT2 ICW); format: cell-based; details: Homo sapiens
From the text: MDA-MB-231 cell line was purchased from ATCC (Manassas, Va., USA). RPMI/Glutamax medium, Penicillin-Streptomycin, Heat Inactivated Fetal Bovine Serum, and D-PBS were purchased from Life Technologies (Grand Island, N.Y., USA). Odyssey blocking buffer, 800 CW goat anti-mouse IgG (H+L) antibody, and Licor Odyssey Infrared Scanner were purchased from Licor Biosciences, Lincoln, Nebr., USA. H3K9me2 mouse monoclonal antibody (Cat #1220) was purchased from Abcam (Cambridge, Mass., USA). 16% Paraformaldehyde was purchased from Electron Microscopy Sciences, Hatfield, Pa., USA). MDA-MB-231 cells were maintained in complete growth medium (RPMI supplemented with 10% v/v heat inactivated fetal bovine serum) and cultured at 37° C. under 5% C02. UNC0638 was purchased from Sigma-Aldrich (St. Louis, Mo., USA).
General Procedure for MDA-MB-231 HEK9me2 in-Cell Western Assay.
Compound (100 nL) was added directly to 384-well cell plate. MDA-MB-231 cells (ATCC) were seeded in assay medium (RPMI/Glutamax supplemented with 10% v/v heat inactivated fetal bovine serum and 1% Penicillin/Streptomycin, Life Technologies) at a concentration of 3,000 cells per well to a Poly-D-Lysine coated 384-well cell culture plate with 50 μL per well. Plates were incubated at 37° C., 5% CO2 for 48 hours (BD Biosciences 356697). […] After the incubation, 50 μL per well of 8% paraformaldehyde (Electron Microscopy Sciences) in PBS was added to the plates and incubated at room temperature for 20 minutes. Plates were transferred to a Biotek 406 plate washer and washed 2 times with 100 μL per well of wash buffer (1×PBS containing 0.3% Triton X-100 (v/v)). Next, 60 μL per well of Odyssey blocking buffer (Licor Biosciences) was added to each plate and incubated for 1 hour at room temperature. Blocking buffer was removed and 20 μL of monoclonal primary antibody α-H3K9me2 (Abcam) diluted 1:800 in Odyssey buffer with 0.1% Tween 20 (v/v) were added and plates were incubated overnight (16 hours) at 4° C. Plates were washed 5 times with 100 μL per well of wash buffer. Next 20 μL per well of secondary antibody was added (1:500 800 CW donkey anti-mouse IgG (H+L) antibody (Licor Biosciences), 1:1000 DRAQ5 (Cell Signaling Technology) in Odyssey buffer with 0.1% Tween 20 (v/v)) and incubated for 1 hour at room temperature. The plates were washed 5 times with 100 μL per well wash buffer then 2 times with 100 μL per well of water. Plates were allowed to dry at room temperature then imaged on a Licor Odyssey Infrared Scanner (Licor Biosciences) which measured integrated intensity at 700 nm and 800 nm wavelengths. Both 700 and 800 channels were scanned.
First, the ratio for each well was determined by:
Each plate included fourteen control wells of DMSO only treatment (Minimum Inhibition) as well as fourteen control wells (background wells) for maximum inhibition treated with control compound UNC0638 (Background wells).
The average of the ratio values for each well was calculated and used to determine the percent inhibition for each test well in the plate. Control compound was serially diluted three-fold in DMSO for a total of 10 test concentrations beginning at 1 μM. Percent inhibition was calculated as: […]
IC50 curves were generated using triplicate wells per concentration of compound. The IC50 is the concentration of compound at which measured methylation is inhibited by 50% as interpolated from the dose response curves. IC50 values were calculated using a non-linear regression (variable slope-four parameter fit model) with by the following formula:
where Top is fixed at 100% and Bottom is fixed to 0%, [I]=concentration of inhibitor, IC50=half maximal inhibitory concentration and n=Hill Slope.

[2] = Table 3, read-out: EHMT2 PEP (IC50 μM)
[3] = Table 3, read-out: EHMT2 ICW (IC50 μM)
[4] = Table 3A, read-out: EHMT2 (IC50 μM)
[5] = Table 3A, read-out: ICW (IC50 μM)

Row | Structure (SMILES) | IC50 (human EHMT2 913-1193; [2]) [µM] | IC50 [1, 3] [µM] | IC50 (human EHMT2 913-1193; [4]) [µM] | IC50 [1, 5] [µM]
1 | CNc1cc(C)nc(Nc2ccc(Cl)c(C(=O)Nc3cn(C)cn3)c2)n1 [Compound 15] | > 10 | > 10 |  | 
2 | CNc1cc(C)nc(Nc2ccc(OC)c(CNCCN3CC[C@H](C)C3)c2)n1 [Compound 39] | 0.1 to 1 | 1 to 10 |  | 
3 | CNc1cc(C)nc(Nc2ccc(Cl)c(C(=O)NCC3CC3)c2)n1 [Compound 4] | > 10 | > 10 |  | 
4 | CNc1cc(C)nc(Nc2ccc(OC)c(OC[C@H](O)CN3CCCCC3)c2)n1 [Compound 40] | > 10 | > 10 |  | 
5 | CNc1cc(C)nc(Nc2ccc(OC)c(OC[C@H](O)CN3CC4(CC4)C3)c2)n1 [Compound 41] | > 10 | > 10 |  | 
6 | CNc1cc(C)nc(Nc2ccc(OC)c(CNCCN3CCC[C@@H]3C)c2)n1 [Compound 32] | > 10 | 1 to 10 |  | 
7 | CCNCc1cnn(-c2c(OC)ccc(Nc3nc(C)cc(NC)n3)c2F)c1 [Compound A7] |  |  | 0.1 to 1 | 0.1 to 1
8 | CNc1cc(C)nc(Nc2ccc(OC)c(-n3cc4c(n3)CCNC4)c2F)n1 [Compound A19, N2-(2-fluoro-4-methoxy-3-(4,5,6,7-tetrahydro-2H-pyrazolo[4,3-c]pyridin-2-yl)phenyl)-N4,6-dimethylpyrimidine-2,4-diamine] |  |  | 0.1 to 1 | 0.1 to 1
9 | CNc1cc(C)nc(Nc2ccc(OC)c(-n3cc([C@@H]4CCCN4)nn3)c2F)n1 [Compound A4S] |  |  | 0.1 to 1 | 0.1 to 1
10 | CNC1=Nc2cc(-n3cc([C@H]4CCCN4)nn3)c(Cl)cc2C12CCC2 [Compound A2R, (R)-5′-chloro-N-methyl-6′-(4-(pyrrolidin-2-yl)-1H-1,2,3-triazol-1-yl)spiro[cyclobutane-1,3′-indol]-2′-amine] |  |  | < 0.01 | 0.01 to 0.1
11 | CNc1cc(C)nc(Nc2ccc(Cl)c(C(=O)Nc3ccccc3)c2)n1 [Compound 10] | > 10 | > 10 |  | 
12 | CNc1cc(C)nc(Nc2ccc(OC)c(C#CCNCCN(C)C)c2)n1 [Compound 49] | 1 to 10 | 1 to 10 |  | 
13 | CNCc1cn(-c2c(OC)cc3c(c2F)N=C(NC)C32CCC2)nn1 [Compound A21] |  |  | 0.01 to 0.1 | 0.1 to 1
14 | CNCc1cn(-c2c(OC)cc3c(c2F)N=C(N)C32CCC2)nn1 [Compound A22] |  |  | 0.01 to 0.1 | 0.1 to 1
15 | CNC1=Nc2cc(-n3cc(C4CCCN4)nn3)c(Cl)cc2C12CCC2 (stereo not shown) [Compound A2] |  |  | 0.01 to 0.1 | 0.1 to 1
16 | CNCc1cn(-c2cc3c(cc2Cl)C2(CCC2)C(NC)=N3)nn1 [Compound A11, 5′-chloro-N-methyl-6′-(4-((methylamino)methyl)-1H-1,2,3-triazol-1-yl)spiro[cyclobutane-1,3′-indol]-2′-amine] |  |  | 0.01 to 0.1 | 0.1 to 1
17 | CNc1cc(C)nc(Nc2ccc(OC)c(CNCCN3CCC[C@H]3C)c2)n1 [Compound 31] | 0.1 to 1 | 1 to 10 |  | 
18 | CNc1cc(C)nc(Nc2ccc(Cl)c(C(=O)Nc3cccnn3)c2)n1 [Compound 5] | > 10 | > 10 |  | 
19 | CNc1cc(C)nc(Nc2ccc(OC)c(C#CCN3CCNCC3)c2)n1 [Compound 28, 2-N-[4-methoxy-3-[3-(piperazin-1-yl)prop-1-yn-1-yl]phenyl]-4-N,6-dimethylpyrimidine-2,4-diamine] | 0.1 to 1 | 1 to 10 |  | 
20 | CNc1cc(C)nc(Nc2ccc(OC)c(CN[C@@H](C)CN3CCCC3)c2)n1 [Compound 47] | 0.1 to 1 | 1 to 10 |  | 
21 | CNc1cc(C)nc(Nc2ccc(C)c(C(=O)Nc3cn(C4CC4)cn3)c2)n1 [Compound 36] | > 10 | > 10 |  | 
22 | CNc1cc(C)nc(Nc2ccc(OC)c(-n3cc([C@H]4CCCN4)nn3)c2F)n1 [Compound A4R] |  |  | 0.01 to 0.1 | 0.01 to 0.1
23 | CNc1cc(C)nc(Nc2ccc(C)c(C(=O)Nc3ncn(C)n3)c2)n1 [Compound 33] | > 10 | > 10 |  | 
24 | CNCc1cn(-c2c(Cl)ccc(Nc3nc(C)cc(NC)n3)c2Cl)nn1 [Compound A13, N2-(2,4-dichloro-3-(4-((methylamino)methyl)-1H-1,2,3-triazol-1-yl)phenyl)-N4,6-dimethylpyrimidine-2,4-diamine] |  |  | < 0.01 | 0.01 to 0.1
25 | CNc1cc(C)nc(Nc2ccc(Cl)c(C(=O)NC3CCOCC3)c2)n1 [Compound 8] | > 10 | > 10 |  | 
26 | CNc1cc(C)nc(Nc2ccc(OC)c(-n3cc(C4CCCN4)nn3)c2F)n1 (stereo not shown) [Compound A4] |  |  | 0.01 to 0.1 | 0.01 to 0.1
27 | CNc1cc(C)nc(Nc2ccc(OC)c(-n3cc(CNC(C)C)cn3)c2F)n1 [Compound A5] |  |  | 0.1 to 1 | > 1
28 | CNc1cc(C)nc(Nc2ccc(Cl)c(C(=O)NCCN3CCCC3)c2)n1 [Compound 7] | 0.1 to 1 | 1 to 10 |  | 
29 | CNc1cc(C)nc(Nc2ccc(OC)c(-n3ncc4c3CCNC4)c2F)n1 [Compound A9, N2-(2-fluoro-4-methoxy-3-(4,5,6,7-tetrahydro-1H-pyrazolo[4,3-c]142yridine-1-yl)phenyl)-N4,6-dimethylpyrimidine-2,4-diamine] |  |  | 0.1 to 1 | 0.1 to 1
